Literature values as cited in US20250288728A1, “SYSTEMS AND METHODS FOR GEL-BASED NEUROMODULATION” (Tulavi Therapeutics, Inc., priority 2018, published 2025).

Assays:
[1] = system: TRPV1 expressing cardiac nerve endings; conditions: 50 μg/ml RTX (10% ethanol in 10% Tween 80/isotonic saline) painted twice on right and left ventricles
sympathetic ganglia = conditions: in vitro; 4 μg/ml (10 uM); within 36 hours

C=C(C)[C@]12C[C@@H](C)[C@@]34O[C@](Cc5ccccc5)(O[C@@H]1[C@@H]3C=C(COC(=O)Cc1ccc(O)c(OC)c1)C[C@]1(O)C(=O)C(C)=C[C@@H]41)O2 [RTX, resiniferatoxin]
duration of complete ablation of TRPV1 expressing cardiac nerve endings [1]: over 10 weeks

Cholesterol oxides
sympathetic ganglia cell death (sympathetic ganglia): rapid cell sympathetic ganglia cell death
